Results published in paper PMC8301602 (AIChE journal. American Institute of Chemical Engineers, 2020).
Where two headings read alike, the source gives them in different places.

Experiments:
[1] = target: EcFbFP (B. subtilis); experiment: SEC
[2] = target: EcFbFP (B. subtilis); experiment: SEC; remark: listed apart in the source
[3] = target: iLOV (Arabidopsis thaliana, UniProt P93025, S394T/S409G/C426A/I452T/F470L/M475V); experiment: fluorescence titration of apo protein, emission at […] nm; type: binding; conditions: PBS; noncooperative 1:1 fit, protein concentration fitted
Sequence of iLOV (P93025 387-496 S394T/S409G/C426A/I452T/F470L/M475V limits assumed): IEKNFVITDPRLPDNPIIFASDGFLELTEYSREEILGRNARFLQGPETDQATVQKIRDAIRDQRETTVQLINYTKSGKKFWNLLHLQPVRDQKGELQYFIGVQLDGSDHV

[4] = target: T1, EcFbFP (Bacillus subtilis, UniProt O34627, C62A); experiment: as above; type: binding
T1 sequence (O34627 1-137 C62A limits assumed): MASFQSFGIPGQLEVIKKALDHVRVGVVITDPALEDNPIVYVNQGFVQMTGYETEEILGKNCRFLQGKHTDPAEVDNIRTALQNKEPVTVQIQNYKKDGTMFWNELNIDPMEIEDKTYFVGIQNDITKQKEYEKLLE

stoichiometry N [1] | stoichiometry N [2] | Compound | Kd [3] | Kd [4]
2 | 2 | EcFbFP |  | 
 |  | Cc1cc2nc3c(=O)[nH]c(=O)nc-3n(C[C@H](O)[C@H](O)[C@H](O)COP(=O)(O)O)c2cc1C [FMN] | 230 ± 20 nM | 180 ± 30 nM
 |  | Cc1cc2nc3c(=O)[nH]c(=O)nc-3n(C[C@H](O)[C@H](O)[C@H](O)COP(=O)(O)OP(=O)(O)OC[C@H]3O[C@@H](n4cnc5c(N)ncnc54)[C@H](O)[C@@H]3O)c2cc1C [FAD] | 180 ± 30 nM | 130 ± 20 nM
 |  | Cc1cc2nc3c(=O)[nH]c(=O)nc-3n(C[C@H](O)[C@H](O)[C@H](O)CO)c2cc1C [riboflavin] | 890 ± 170 nM | 760 ± 150 nM
